# How the values were obtained:
# [1] = test system: L. monocytogenes; experiment: Log reduction according to EN 1276; format: cell-based
# [2] = test system: S. typhimurium; experiment: Log reduction according to EN 1276; format: cell-based
# [3] = test system: E. coli; experiment: Log reduction according to EN 1276; format: cell-based
# Source text: (§1) As shown in the Examples herein, the skin-care composition is active against bacteria and due to its content of hydrogen peroxide and lactate/lactic it is contemplated to be active against viruses as well, i.e. functioning as an anti-microbial composition. It has been shown that a synergistic effect between hydrogen peroxide and lactic acid in bacteria such as E. coli, P. aeruginosa, E. hirae, S. aureus, L. monocytogenes and S. typhimurium, see the following tables: […]
# [4] = test system: S. aureus; experiment: Log reduction according to EN 1276; format: cell-based
# Source text: as §1
# [5] = test system: P. aeruginosa; experiment: Log reduction according to EN 1276; format: cell-based
# [6] = test system: E. hirae; experiment: Log reduction according to EN 1276; format: cell-based
# [7] = test system: bacteria, viruses; conditions: 0.5% hydrogen peroxide; cited from earlier work
# [8] = test system: spores; conditions: cited from earlier work
# [9] = test system: bacteria; conditions: cited from earlier work
smiles,measurement,setting,value
"OO [1% H2O2, hydrogen peroxide]",Log reduction according to EN 1276,[1],0.6
same,Log reduction according to EN 1276,[2],0.5
"CC(O)C(=O)O (stereo not shown) [1% LA, lactic acid]",Log reduction according to EN 1276,[1],3.8
same,Log reduction according to EN 1276,[2],>5
"CC(O)C(=O)O (stereo not shown) [1% LA, pH 3, lactic acid]",Log reduction according to EN 1276,[1],2.2
same,Log reduction according to EN 1276,[2],>5
"OO [3% H2O2, hydrogen peroxide]",Log reduction according to EN 1276,[3],>5
same,Log reduction according to EN 1276,[4],<1
same,Log reduction according to EN 1276,[5],>5
same,Log reduction according to EN 1276,[6],0.1
OO [hydrogen peroxide],time in which bactericidal and virucidal activity was demonstrated,[7],1 min
same,concentration that will work against most spores,[8],3%
CC(O)C(=O)O (stereo not shown) [lactic acid],concentration regarded as bactericidal,[9],≥ 0.25 % w/w

# Source: patent publication US20230398051A1, “Anti-Microbial Skin-Care Composition Comprising Beta-Glucan and Natural Oil” (LANTMÄNNEN OATS AB, priority 2020, published 2023)
